The source of these data is PubChem BioAssay (NCI).

SMILES strings stand for the structures.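 96-well plates; 48 h exposure; 5 concentrations. Endpoints by linear interpolation between flanking doses. Not reached: highest tested concentration assigned. At the TGI there is no net growth.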

Test systems include ACHN renal; HT29 colon; KM12 colon; NCI-H23 lung; NCI/ADR-RES ovarian; OVCAR-8 ovarian; SF-268 CNS; SF-539 CNS; U251 CNS; UACC-257 melanoma.
Assay in all cases: NCI anticancer screen, dose series, 48 h

On to `CC(OC(=O)C(CC(=O)OC(C)(C)C)NC(=O)OC(C)(C)C)C(=O)OCc1ccccc1` (stereo not given), for which the TGI in the test on ACHN renal, in the test on HT29 colon, in the test on KM12 colon, in the test on NCI-H23 lung, with NCI/ADR-RES ovarian and in the test with OVCAR-8 ovarian was greater than 100 µM throughout. The TGI in the test with SF-268 CNS, in the test with SF-539 CNS, in the test on U251 CNS and with UACC-257 melanoma was greater than 100 µM in each case.
For `CCOC(=O)C(NC(=O)c1ccccc1)(Nc1ccc(Cl)cc1C(F)(F)F)C(F)(F)F` (stereo not given), the TGI was 27.4 µM with ACHN renal; 6.53 µM with HT29 colon; 5.17 µM in the test with KM12 colon; greater than 78 µM with NCI-H23 lung; 10.6 µM in the test on NCI/ADR-RES ovarian; greater than 100 µM with OVCAR-8 ovarian. Further, the TGI with SF-268 CNS was greater than 100 µM; in the test on SF-539 CNS, greater than 88.6 µM; with U251 CNS, 19 µM; with UACC-257 melanoma, greater than 100 µM.
`COC(=O)[C@H](Cc1ccc(OC(C)(C)C)cc1)N[C@H](C)C(=O)N[C@@H](Cc1ccccc1)C(=O)OCc1ccccc1`: the TGI with ACHN renal, with HT29 colon, in the test with KM12 colon, in the test with NCI-H23 lung, in the test with NCI/ADR-RES ovarian and in the test with OVCAR-8 ovarian was greater than 100 µM throughout. The TGI in the test with SF-268 CNS, in the test on SF-539 CNS, with U251 CNS and with UACC-257 melanoma was greater than 100 µM in each case.
On to `COC(=O)[C@H](CC(C)C)Nc1c(O)c2c(c(O)c1Cl)C(=O)C=CC2=O`, for which the TGI in the test with ACHN renal was greater than 10 µM; in the test on HT29 colon, 9.41 µM; in the test with KM12 colon, greater than 10 µM; with NCI-H23 lung it was greater than 10 µM; with NCI/ADR-RES ovarian, greater than 10 µM; in the test on OVCAR-8 ovarian it was greater than 10 µM. For the same compound, the TGI in the test on SF-268 CNS, in the test with SF-539 CNS, in the test with U251 CNS and with UACC-257 melanoma was greater than 10 µM each time.
Take `COc1ccc(C2CC3(c4ccccc4)ON=C(c4ccccc4)N3c3ccccc3S2)cc1` (stereo not given): the TGI in the test with ACHN renal, in the test with HT29 colon, in the test with KM12 colon, in the test with NCI-H23 lung, with NCI/ADR-RES ovarian and in the test with OVCAR-8 ovarian was greater than 100 µM each time. The TGI with SF-268 CNS, in the test on SF-539 CNS, in the test with U251 CNS and in the test on UACC-257 melanoma was greater than 100 µM each time.
`CN1CCC2(CC1)C(=NC1CCCCC1)NC(=S)N2c1ccccc1`: the TGI in the test with ACHN renal, in the test on HT29 colon, in the test with KM12 colon, in the test with NCI-H23 lung, in the test on NCI/ADR-RES ovarian and in the test with OVCAR-8 ovarian was greater than 100 µM in each case. In addition, the TGI in the test on SF-268 CNS, in the test on SF-539 CNS, with U251 CNS and in the test with UACC-257 melanoma was greater than 100 µM throughout.
On to `CC(=O)OC12c3ccccc3-c3ccccc3C1C1C(=O)OC(=O)C12` (stereo not given), for which the TGI with ACHN renal, in the test with HT29 colon, in the test on KM12 colon, in the test with NCI-H23 lung, with NCI/ADR-RES ovarian and with OVCAR-8 ovarian was greater than 10 µM in each case. In addition, the TGI in the test with SF-268 CNS, in the test with SF-539 CNS, in the test with U251 CNS and in the test on UACC-257 melanoma was greater than 10 µM each time.
Regarding `CCOC(=O)C(=O)/C(=C/N1C(=O)CC(=O)NC1=S)C(=O)OCC`, the TGI in the test on ACHN renal, in the test with HT29 colon, in the test with KM12 colon, in the test with NCI-H23 lung, in the test on NCI/ADR-RES ovarian and with OVCAR-8 ovarian was greater than 100 µM each time. Moreover, the TGI with SF-268 CNS, in the test on SF-539 CNS, in the test on U251 CNS and with UACC-257 melanoma was greater than 100 µM each time.
In the case of `COc1ccccc1/C=C1\NC(=S)N(/C=C2\C(=O)Oc3ccccc3C2=O)C1=O`, the TGI with ACHN renal, in the test with HT29 colon, in the test on KM12 colon, in the test with NCI-H23 lung, with NCI/ADR-RES ovarian and with OVCAR-8 ovarian was greater than 100 µM throughout. For the same compound, the TGI was greater than 100 µM in the test with SF-268 CNS, 96.7 µM in the test with SF-539 CNS, greater than 100 µM with U251 CNS and greater than 100 µM in the test on UACC-257 melanoma.
With `O=C(CNC(c1ccccc1)(c1ccccc1)c1ccccc1)NC1CCCCC1NC(=O)CNC(c1ccccc1)(c1ccccc1)c1ccccc1` (stereo not given), the TGI with ACHN renal, with HT29 colon, in the test with KM12 colon, in the test on NCI-H23 lung, with NCI/ADR-RES ovarian and with OVCAR-8 ovarian was greater than 100 µM throughout. For the same compound, the TGI with SF-268 CNS, with SF-539 CNS, in the test on U251 CNS and with UACC-257 melanoma was greater than 100 µM in each case.
In the case of `O=C1C=CC(=O)c2c1ccc1c3ccccc3n(Cc3cccc([N+](=O)[O-])c3)c21`, the TGI with ACHN renal was 38 µM; in the test on HT29 colon, greater than 73.1 µM; in the test on KM12 colon, greater than 100 µM; with NCI-H23 lung, 50.4 µM; with NCI/ADR-RES ovarian it was greater than 90.3 µM; in the test on OVCAR-8 ovarian, greater than 100 µM. In addition, the TGI with SF-268 CNS is greater than 100 µM; with SF-539 CNS, greater than 80.6 µM; in the test on U251 CNS, greater than 100 µM; in the test with UACC-257 melanoma it was 60.1 µM.
Take `Nc1nc2c(ncn2Cc2ccccc2CO)c(=O)[nH]1`: the TGI with ACHN renal, with HT29 colon, in the test with KM12 colon, in the test on NCI-H23 lung, in the test with NCI/ADR-RES ovarian and in the test on OVCAR-8 ovarian was greater than 100 µM in each case. In addition, the TGI in the test with SF-268 CNS, in the test on SF-539 CNS, in the test with U251 CNS and with UACC-257 melanoma was greater than 100 µM throughout.
Turning to `C=C(CN1CC2C[C@](C(=O)OC)(c3cc4ccccc4[nH]3)C1C(OC)C2OC)S(=O)(=O)c1ccccc1` (stereo not given in full), the TGI came out at 9.24 µM in the test on ACHN renal; 9.44 µM with HT29 colon; 10.7 µM in the test on KM12 colon; 9.31 µM with NCI-H23 lung; 20.7 µM with NCI/ADR-RES ovarian; 12.6 µM in the test on OVCAR-8 ovarian. Besides, the TGI came to 15.8 µM in the test with SF-268 CNS, 16.9 µM with SF-539 CNS, 8.52 µM in the test on U251 CNS and 8.5 µM with UACC-257 melanoma.
